# Read-outs that look alike come from different tables or passages of the source.
# What was measured:
# [1] = tested on: Salmonella typhimurium TA100; assay: Bacterial reverse mutation (Ames) assay, plate incorporation; format: cell-based
# Protocol: (§1) Pretomanid and metabolite M50 were evaluated over a range of concentrations, with and without an added metabolic activation system, in five tester strains: Salmonella typhimurium histidine auxotrophs TA98, TA100, TA1535, and TA1537 [9] and the Escherichia coli tryptophan auxotroph WP2uvrA. S. typhimurium strains were received from Dr. Bruce Ames, Department of Biochemistry, University of California (Berkeley, CA). The E. coli strain was received from The National Collection of Industrial Bacteria, Torrey Research Station, Aberdeen, Scotland (United Kingdom). The metabolic activation system was a liver homogenate (S9) mix. The S9 component was prepared from male Sprague-Dawley rats that had been injected (intraperitoneally) with Aroclor^TM 1254 at 500 mg/kg, 5 days before sacrifice. The S9 mix was prepared immediately before use and contained 10% S9, 5 mM glucose-6-phosphate, 4 mM β-nicotinamide adenine dinucleotide phosphate, 8 mM MgCl2 and 33 mM KCl in a 100 mM phosphate buffer at pH 7.4. Pretomanid was tested at 0.05 to 5000 μg/plate. Metabolite M50 was tested at 78 to 2500 μg/plate. A negative (solvent) control culture and appropriate positive control cultures were included in each assay.
# (§2) Bacteria were exposed to test materials by the plate incorporation method originally described by Ames et al and updated by Maron and Ames. Bottom agar was Vogel-Bonner minimal medium E [12] with 1.5% (w/v) agar, and the top Agar was 0.7% (w/v) agar and 0.5% (w/v) NaCl. After incubation, cultures were evaluated using a dissecting microscope for precipitation or cytotoxicity, and revertant colonies were counted. The mean numbers of revertant colonies in various cultures were compared to reach conclusions about assay validity and mutagenic potential. For the test article to be evaluated positive, it must cause a dose-related increase in the mean revertants per plate of at least one tester strain with a minimum of two increasing concentrations of test article.
# [2] = tested on: Salmonella typhimurium TA1535; assay: as above; format: cell-based
# Protocol: as §1, §2
# [3] = tested on: Salmonella typhimurium TA1537; assay: as above; format: cell-based
# Protocol: as §1, §2
# [4] = tested on: Salmonella typhimurium TA98; assay: as above; format: cell-based
# Protocol: as §1, §2
# Escherichia coli WP2uvrA = assay: as above
# Protocol: as §1, §2
# [5] = tested on: Salmonella typhimurium TA98, TA100, TA1535, TA1537 and Escherichia coli WP2uvrA; assay: Bacterial reverse mutation (Ames) assay, overall over five tester strains; format: cell-based; conditions: up to 5000 μg/plate
# Protocol: as §1, §2
# [6] = Toxicokinetic assessment in wild-type CByB6F1 mice (Day 14); format: in vivo
# Protocol: TK animals were included for the vehicle control (n = 4 sex) and pretomanid-treated groups (n = 10 sex/group). The TK cohort animals were dosed by oral gavage once daily for 14 consecutive days.
# Toxicokinetic blood samples (300 μL for males and 250 μL for females) were collected in K3EDTA tubes after 14 doses from the TK cohort via retro-orbital bleeding under 70% CO2/30% O2 anesthesia. On Day 14, control mice were bled once 2 hours after dosing. On Day 14 and 15, Pretomanid-treated mice were bled predose, 0.5, 1, 3, 6, and 24 hours post dose. TK animals were euthanized after their final blood collection.
# Collected blood was stored on wet ice until the samples were processed to plasma. Blood samples were centrifuged at 4±2°C and 8000 g for 5 minutes. Plasma was snap frozen in liquid nitrogen and stored in a deep freezer (≤−60°C) within 60 minutes of bleeding the TK animals.
# Pretomanid and the M50 metabolite were quantified in mouse plasma by liquid chromatography-tandem mass spectrometry (LC-MS/MS) after protein precipitation. Aliquots of 25 µL of plasma were spiked with internal standards (PA-824-d5 or morphine) and proteins were precipitated in 1% formic acid in acetonitrile. A partial supernatant from each sample was transferred to a clean plate and diluted in acetonitrile/water (40:60) for pretomanid and deionized water for M50. Supernatant was analyzed for pretomanid or M50 using validated LC-MS/MS methods with a linear range of 20 to 10,000 ng/mL for pretomanid and 10 to 5,000 ng/mL for M50 (methods validated at Alliance Pharma, Malvern PA).
# Sample collection time and plasma concentration data were analyzed to derive TK parameters by standard model independent methods based on the mean plasma concentration-time data for each dose group. The TK analyses of the plasma concentration profiles were performed using non-compartmental analysis in Phoenix WinNonlin Professional 7.0 (Certara, L.P., St. Louis, MO, USA). Concentration values below the lower limit of quantitation were treated as zeros for analysis purposes.
structure (smiles),measurement,setting,value
"O=[N+]([O-])c1cn2c(n1)OC[C@@H](OCc1ccc(OC(F)(F)F)cc1)C2 [Pretomanid, (6S)-2-nitro-6-{[4-(trifluoromethoxy)benzyl]oxy}-6,7-dihydro-5H-imidazo[2,1-b][1,3]oxazine]",Mean Number of Revertants/Plate,"[1]; TA100 +S9, 100 μg/plate",137 Revertants/Plate
same,Mean Number of Revertants/Plate,"[1]; TA100 +S9, 333 μg/plate",179 Revertants/Plate
same,Mean Number of Revertants/Plate,"[1]; TA100 +S9, 1000 μg/plate",173 Revertants/Plate
same,Mean Number of Revertants/Plate,"[1]; TA100 +S9, 3333 μg/plate",166 Revertants/Plate
same,Mean Number of Revertants/Plate,"[1]; TA100 +S9, 5000 μg/plate",179 Revertants/Plate
same,Mean Number of Revertants/Plate,"[1]; TA100 −S9, 100 μg/plate",119 Revertants/Plate
same,Mean Number of Revertants/Plate,"[1]; TA100 −S9, 333 μg/plate",107 Revertants/Plate
same,Mean Number of Revertants/Plate,"[1]; TA100 −S9, 1000 μg/plate",115 Revertants/Plate
same,Mean Number of Revertants/Plate,"[1]; TA100 −S9, 3333 μg/plate",99 Revertants/Plate
same,Mean Number of Revertants/Plate,"[1]; TA100 −S9, 5000 μg/plate",106 Revertants/Plate
same,Mean Number of Revertants/Plate,"[2]; TA1535 +S9, 100 μg/plate",12 Revertants/Plate
same,Mean Number of Revertants/Plate,"[2]; TA1535 +S9, 333 μg/plate",13 Revertants/Plate
same,Mean Number of Revertants/Plate,"[2]; TA1535 +S9, 1000 μg/plate",10 Revertants/Plate
same,Mean Number of Revertants/Plate,"[2]; TA1535 +S9, 3333 μg/plate",11 Revertants/Plate
same,Mean Number of Revertants/Plate,"[2]; TA1535 +S9, 5000 μg/plate",14 Revertants/Plate
same,Mean Number of Revertants/Plate,"[2]; TA1535 −S9, 100 μg/plate",9 Revertants/Plate
same,Mean Number of Revertants/Plate,"[2]; TA1535 −S9, 333 μg/plate",10 Revertants/Plate
same,Mean Number of Revertants/Plate,"[2]; TA1535 −S9, 1000 μg/plate",10 Revertants/Plate
same,Mean Number of Revertants/Plate,"[2]; TA1535 −S9, 3333 μg/plate",8 Revertants/Plate
same,Mean Number of Revertants/Plate,"[2]; TA1535 −S9, 5000 μg/plate",7 Revertants/Plate
same,Mean Number of Revertants/Plate,"[3]; TA1537 +S9, 100 μg/plate",9 Revertants/Plate
same,Mean Number of Revertants/Plate,"[3]; TA1537 +S9, 333 μg/plate",6 Revertants/Plate
same,Mean Number of Revertants/Plate,"[3]; TA1537 +S9, 1000 μg/plate",5 Revertants/Plate
same,Mean Number of Revertants/Plate,"[3]; TA1537 +S9, 3333 μg/plate",5 Revertants/Plate
same,Mean Number of Revertants/Plate,"[3]; TA1537 +S9, 5000 μg/plate",4 Revertants/Plate
same,Mean Number of Revertants/Plate,"[3]; TA1537 −S9, 100 μg/plate",5 Revertants/Plate
same,Mean Number of Revertants/Plate,"[3]; TA1537 −S9, 333 μg/plate",5 Revertants/Plate
same,Mean Number of Revertants/Plate,"[3]; TA1537 −S9, 1000 μg/plate",10 Revertants/Plate
same,Mean Number of Revertants/Plate,"[3]; TA1537 −S9, 3333 μg/plate",5 Revertants/Plate
same,Mean Number of Revertants/Plate,"[3]; TA1537 −S9, 5000 μg/plate",5 Revertants/Plate
same,Mean Number of Revertants/Plate,"[4]; TA98 +S9, 100 μg/plate",22 Revertants/Plate
same,Mean Number of Revertants/Plate,"[4]; TA98 +S9, 333 μg/plate",26 Revertants/Plate
same,Mean Number of Revertants/Plate,"[4]; TA98 +S9, 1000 μg/plate",23 Revertants/Plate
same,Mean Number of Revertants/Plate,"[4]; TA98 +S9, 3333 μg/plate",16 Revertants/Plate
same,Mean Number of Revertants/Plate,"[4]; TA98 +S9, 5000 μg/plate",22 Revertants/Plate
same,Mean Number of Revertants/Plate,"[4]; TA98 −S9, 100 μg/plate",25 Revertants/Plate
same,Mean Number of Revertants/Plate,"[4]; TA98 −S9, 333 μg/plate",12 Revertants/Plate
same,Mean Number of Revertants/Plate,"[4]; TA98 −S9, 1000 μg/plate",18 Revertants/Plate
same,Mean Number of Revertants/Plate,"[4]; TA98 −S9, 3333 μg/plate",17 Revertants/Plate
same,Mean Number of Revertants/Plate,"[4]; TA98 −S9, 5000 μg/plate",15 Revertants/Plate
same,Mean Number of Revertants/Plate,"Escherichia coli WP2uvrA; WP2uvrA +S9, 100 μg/plate",16 Revertants/Plate
same,Mean Number of Revertants/Plate,"Escherichia coli WP2uvrA; WP2uvrA +S9, 333 μg/plate",17 Revertants/Plate
same,Mean Number of Revertants/Plate,"Escherichia coli WP2uvrA; WP2uvrA +S9, 1000 μg/plate",15 Revertants/Plate
same,Mean Number of Revertants/Plate,"Escherichia coli WP2uvrA; WP2uvrA +S9, 3333 μg/plate",10 Revertants/Plate
same,Mean Number of Revertants/Plate,"Escherichia coli WP2uvrA; WP2uvrA +S9, 5000 μg/plate",14 Revertants/Plate
same,Mean Number of Revertants/Plate,"Escherichia coli WP2uvrA; WP2uvrA −S9, 100 μg/plate",23 Revertants/Plate
same,Mean Number of Revertants/Plate,"Escherichia coli WP2uvrA; WP2uvrA −S9, 333 μg/plate",21 Revertants/Plate
same,Mean Number of Revertants/Plate,"Escherichia coli WP2uvrA; WP2uvrA −S9, 1000 μg/plate",17 Revertants/Plate
same,Mean Number of Revertants/Plate,"Escherichia coli WP2uvrA; WP2uvrA −S9, 3333 μg/plate",11 Revertants/Plate
same,Mean Number of Revertants/Plate,"Escherichia coli WP2uvrA; WP2uvrA −S9, 5000 μg/plate",16 Revertants/Plate
same,Change in number of revertant colonies,[5]; any tester strain under any conditions,did not cause a significant increase
same,Cytotoxicity in the Ames assay,[5],no appreciable cytotoxicity
same,Mutagenic potential,[5]; with and without S9,negative
same,AUC(0-t),"[6]; CByB6F1 (wild-type), mouse, female, pretomanid 10 mg/kg/day oral, Day 14, plasma, read-out: Pretomanid AUC0-24",24900 ng·h/mL
same,Cmax,"[6]; CByB6F1 (wild-type), mouse, female, pretomanid 30 mg/kg/day oral, Day 14, plasma",6900 ng/mL
same,AUC(0-t),"[6]; CByB6F1 (wild-type), mouse, female, pretomanid 30 mg/kg/day oral, Day 14, plasma, read-out: Pretomanid AUC0-24",87500 ng·h/mL
same,Cmax,"[6]; CByB6F1 (wild-type), mouse, female, pretomanid 80 mg/kg/day oral, Day 14, plasma",16200 ng/mL
same,AUC(0-t),"[6]; CByB6F1 (wild-type), mouse, female, pretomanid 80 mg/kg/day oral, Day 14, plasma, read-out: Pretomanid AUC0-24",186000 ng·h/mL
same,Exposure to pretomanid relative to exposure to the M50 metabolite,"[6]; Day 14, all dose levels, both sexes",more than 10 times
same,AUC(0-t),"[6]; both sexes, CByB6F1 (wild-type), mouse, plasma, oral, high dose (40 male, 80 female mg/kg/day), read-out: Gender averaged mouse AUC0-24 of pretomanid",149000 ng·h/mL
same,Cmax,"[6]; wild-type CByB6F1, mouse, female, pretomanid 10 mg/kg/day oral, Day 14, plasma",2900 ng/mL
same,Cmax,"[6]; wild-type CByB6F1, mouse, male, pretomanid 5 mg/kg/day oral, Day 14, plasma",1800 ng/mL
same,AUC(0-t),"[6]; wild-type CByB6F1, mouse, male, pretomanid 5 mg/kg/day oral, Day 14, plasma, read-out: Pretomanid AUC0-24",13700 ng·h/mL
same,Cmax,"[6]; wild-type CByB6F1, mouse, male, pretomanid 15 mg/kg/day oral, Day 14, plasma",4900 ng/mL
same,AUC(0-t),"[6]; wild-type CByB6F1, mouse, male, pretomanid 15 mg/kg/day oral, Day 14, plasma, read-out: Pretomanid AUC0-24",50800 ng·h/mL
same,Cmax,"[6]; wild-type CByB6F1, mouse, male, pretomanid 40 mg/kg/day oral, Day 14, plasma",10400 ng/mL
same,AUC(0-t),"[6]; wild-type CByB6F1, mouse, male, pretomanid 40 mg/kg/day oral, Day 14, plasma, read-out: Pretomanid AUC0-24",112000 ng·h/mL

# Reference: publication PMC9411704, “Assessment of the Carcinogenic Potential of Pretomanid in Transgenic Tg.rasH2 Mice” (International Journal of Toxicology, 2022)
